Entries after “also recorded” stand apart in the source; their conditions may differ. Like-named read-outs stand apart in the source and are kept apart here.
Assays:
[1] = system: E. coli BL21 (pET28a-SP-NDM-1); assay: antibacterial activity assay (MIC, broth microdilution; FICI); assay type: cell-based; conditions: for MIC: Escherichia coli; for FICI: FICI ≤ 0.5 denotes synergy
NDM-1 [2] = target: T1, NDM-1 (Klebsiella pneumoniae, UniProt C7C422); assay: nitrocefin assay (hydrolysis by purified NDM-1); assay type: biochemical
T1 construct: made in house; host or cells: E. coli BL21 (DE3)
T1 sequence (C7C422 29-270 limits assumed): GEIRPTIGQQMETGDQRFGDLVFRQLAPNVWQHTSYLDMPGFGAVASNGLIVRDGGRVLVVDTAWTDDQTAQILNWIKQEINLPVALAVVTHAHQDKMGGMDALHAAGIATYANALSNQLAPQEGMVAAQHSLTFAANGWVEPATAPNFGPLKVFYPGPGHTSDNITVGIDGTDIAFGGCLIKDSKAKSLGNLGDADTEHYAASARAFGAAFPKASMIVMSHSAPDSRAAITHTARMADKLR
Procedure: The inhibitory activities of 18 compounds against NDM-1 were tested by nitrocefin assay. The purified NDM-1 was incubated with drugs and nitrocefin, then the absorbance values of OD492nm were determined as the nitrocefin hydrolysis. […]
collected for the subsequent protein purification as described by Liu et.al. […]
further determination of the inhibitory effect of ZINC05683641 on the hydrolysis activities of NDM-1. The initial identifying of NDM-1 inhibitory activities was carried out on the […]
serves as an indicator whose colour changes from yellow to red with increased hydrolysis.
(§1) NDM-1 were incubated with various concentrations of inhibitor (0, 4, 8, 16, 32, 64 μg/mL) in phosphate buffer (pH = 7.4) at room temperature for 20 minutes, and then, 25 μL of nitrocefin was added to the mixture. After 10 minutes of incubation, the samples were read at OD492nm to determine the level of nitrocefin hydrolysis. […]

WT-NDM-1 = target: T2, WT-NDM-1 (Klebsiella pneumoniae, UniProt C7C422); assay: fluorescence-quenching assay, WT; assay type: binding
T2 construct: made in house; host or cells: E. coli BL21 (DE3)
T2 sequence (C7C422 29-270 limits assumed): as above
Procedure: (§2) Furthermore, this competitive inhibition mechanism was verified by fluorescence quenching method. In previous literature, fluorescence quenching method are extensively used in the interaction mechanism research between ligand and protein. The binding constants of NDM-1 with ZINC05683641 were measured by fluorescence quenching method in this research. […] It is believed that the 3D structure of NDM-1-ZINC05683641 complex is reliable by MD simulation, and residues of ILE-35, MET-67, VAL-73, TRP-93, CYS-208, ASN-220 and HIS-250 played crucial roles in the binding of ZINC05683641 to NDM-1. […]
(§3) Fluorescence-quenching assay
(§4) According to Dong et al., Niu et al. and Qiu et al., the binding constants (KA) of WT-NDM-1 and two mutants NDM-1 with inhibitor were measured using the fluorescence-quenching […]
(§5) Site-Directed Mutagenesis
(§6) The recombinant plasmid pET28a-NDM-1 was constructed according to previous reports encoding WT-NDM-1. Plasmids encoding W93A-NDM-1 or H250A-NDM-1 were constructed by using a QuikChange site-directed mutagenesis kit. The template plasmid was the pET28a-NDM-1 plasmid, as noted above.
(§7) Expression and puriﬁcation of WT-PLY and mutants
(§8) Plasmids harboring the coding sequences for WT-NDM-1, W93A-NDM-1, and H250A-NDM-1 were transformed into E. coli BL21 (DE3). […]

H250A-NDM-1 [3] = target: T3, H250A-NDM-1 (Klebsiella pneumoniae, UniProt C7C422, H250A); assay: fluorescence-quenching assay, H250A; assay type: binding
T3 sequence (C7C422 29-270 H250A): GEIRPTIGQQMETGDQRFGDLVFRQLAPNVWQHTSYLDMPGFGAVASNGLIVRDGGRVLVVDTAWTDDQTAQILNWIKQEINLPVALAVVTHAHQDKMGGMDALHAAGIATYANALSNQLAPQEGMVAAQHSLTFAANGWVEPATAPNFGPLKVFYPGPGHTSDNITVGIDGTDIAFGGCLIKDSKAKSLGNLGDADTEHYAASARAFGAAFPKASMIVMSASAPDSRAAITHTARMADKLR
Procedure: as §2, §3, §4, §5, §6, §7, §8

W93A-NDM-1 [4] = target: T4, W93A-NDM-1 (Klebsiella pneumoniae, UniProt C7C422, W93A); assay: fluorescence-quenching assay, W93A; assay type: binding
T4 sequence (C7C422 29-270 W93A): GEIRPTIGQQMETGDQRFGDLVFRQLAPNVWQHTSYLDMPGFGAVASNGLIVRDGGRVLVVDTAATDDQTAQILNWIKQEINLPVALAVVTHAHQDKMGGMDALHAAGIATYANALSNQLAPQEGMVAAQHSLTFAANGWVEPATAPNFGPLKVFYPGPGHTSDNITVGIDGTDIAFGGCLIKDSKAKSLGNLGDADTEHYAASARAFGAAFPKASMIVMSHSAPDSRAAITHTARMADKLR
Procedure: as §2, §3, §4, §5, §6, §7, §8

W93A-NDM-1 [5] = target: T4, W93A-NDM-1; assay: nitrocefin assay with mutant W93A; assay type: biochemical; conditions: 4-64 μg/mL
Procedure: (§9) Subsequently, the inhibitory activity of ZINC05683641 against mutants was tested by the nitrocefin assays. […] The findings indicate that due to the mutation of residues in the binding sites, the binding affinity of ZINC05683641 with NDM-1 decreased, leading to a loss of inhibitory activity. […]
as §5, §6, §7
(§10) Plasmids harboring the coding sequences for WT-NDM-1, W93A-NDM-1, and H250A-NDM-1 were transformed into E. coli BL21 (DE3). The E. coli strain was cultured in 1,000 mL of LB broth supplemented with 50 μg mL–1 kanamycin until the OD 600 nm of the cultures reached 0.6–0.8.
(§11) Protein expression was induced by using 0.3 mM IPTG for 12 h at 16 °C. The cells were harvested and washed once with sterile PBS. […]
as §1

H250A-NDM-1 [6] = target: T3, H250A-NDM-1; assay: nitrocefin assay with mutant H250A; assay type: biochemical; conditions: 4-64 μg/mL
Procedure: as §9, §5, §6, §7, §10, §11, §1

NDM-1 [7] = target: T1, NDM-1; conditions: cited from earlier work
[8] = IC50, nitrocefin hydrolysis, OD492nm, mean ± SD, n = 3
[9] = IC50 (not available; inhibitory activity at 1 mM), initial test at a concentration of 1 mM

C[C@@H](O)[C@H]1C(=O)N2C(C(=O)O)=C(S[C@@H]3CN[C@H](C(=O)N(C)C)C3)[C@H](C)[C@H]12 [Meropenem]
MIC of meropenem in combination ([1]; +64 μg/mL ZINC05683641): 8 µg/mL | MIC of meropenem in combination ([1]; +128 μg/mL ZINC05683641): 8 µg/mL | MIC [1]: 32 µg/mL | reduction of the MICs of meropenem ([1]; addition of ZINC05683641 at 64 and 128 μg/mL): fourfold | FICI ([1]; meropenem +64 μg/mL ZINC05683641): 0.375 | FICI ([1]; meropenem +128 μg/mL ZINC05683641): 0.50 | FICI ([1]; meropenem +128 μg/mL ZINC05683641, listed as meropenem): 0.500

Cc1ccc(N2C(=O)c3ccc(C(=O)c4ccc5c(c4)C(=O)N(c4ccc(C)cc4C)C5=O)cc3C2=O)c(C)c1 [ZINC00639379]
IC50 (NDM-1 [2]; [8]): 207 ± 15.5 µM

O=c1oc2cc(OCc3ccc(Cl)c(Cl)c3)ccc2cc1-c1nc2ccccc2s1 [ZINC01799114]
IC50 (NDM-1 [2]; [8]): > 300 µM

Cc1ccc(N2C(=O)c3ccc(C(=O)c4ccc5c(c4)C(=O)N(c4ccc(C)cc4C)C5=O)cc3C2=O)c(C)c1 [ZINC02079077]
IC50 (NDM-1 [2]; [8]): 108 ± 5.64 µM

Cc1ccc(-c2cc(C(=O)Oc3ccc([N+](=O)[O-])cc3)c3cc(C)ccc3n2)cc1 [ZINC02577071]
IC50 (NDM-1 [2]; [8]): > 300 µM

Cc1ccc(S(=O)(=O)ON2C(=O)c3cccc4cccc(c34)C2=O)cc1 [ZINC02938448]
IC50 (NDM-1 [2]; [8]): > 300 µM

O=C1c2cccc3cccc(c23)C(=O)N1OS(=O)(=O)c1ccc(Cl)cc1 [ZINC02953923]
IC50 (NDM-1 [2]; [8]): > 300 µM

Cc1ccc(S(=O)(=O)Nc2cccc3cccc(NS(=O)(=O)c4ccc(C)cc4)c23)cc1 [ZINC03198432]
IC50 (NDM-1 [2]; [8]): > 300 µM

O=C(N[C@@H](Cc1ccc2ccccc2c1)C(=O)O)OCC1c2ccccc2-c2ccccc21 [ZINC04218138]
IC50 (NDM-1 [2]; [9]): > 1000 µM

COc1ccc2c3c(cccc13)C(=O)N(OS(=O)(=O)c1ccc(C)cc1)C2=O [ZINC05683641]
IC50 (NDM-1 [2]; [8]): 13.6 ± 0.52 µM | hydrolysis activity of nitrocefin by WT-NDM-1 (NDM-1 [2]; final concentrations of 4, 8, 16, 32 and 64 μg/mL): reduced | inhibition at 16 µM (NDM-1 [2]; read-out: inhibition rate): > 50% | Kd (WT-NDM-1): 2.4 µM | Kd (H250A-NDM-1 [3]): 4.65 µM | binding constant KA (H250A-NDM-1 [3]; H250A, fluorescence spectroscopy quenching, mean ± SD, n = 3): 2.15 ± 0.88 1 × 10^5 L mol^−1 | MIC [1]: > 512 µg/mL | inhibition of cell growth ([1]; inhibitor alone, 512 μg/mL): did not inhibit cell growth | Kd (W93A-NDM-1 [4]): 3.28 µM | binding constant KA (W93A-NDM-1 [4]; W93A, fluorescence spectroscopy quenching, mean ± SD, n = 3): 3.05 ± 0.83 1 × 10^5 L mol^−1 | inhibition of W93A hydrolysis activity (W93A-NDM-1 [5]): almost no inhibition; also recorded: did not lead to inhibitory effects | inhibition of H250A hydrolysis activity (H250A-NDM-1 [6]): almost no inhibition; also recorded: did not lead to inhibitory effects

C[C@H]1CCc2cc(F)cc3c(=O)c(C(=O)NCc4ccccc4Cl)c(O)n1c23 [ZINC06166781]
IC50 (NDM-1 [2]; [8]): > 300 µM

Cc1ccc(-c2cc(C(F)(F)F)c3c(N)c(C(=O)c4ccccc4)sc3n2)cc1 [ZINC06421319]
IC50 (NDM-1 [2]; [9]): > 1000 µM

Cc1ccc(S(=O)(=O)N[C@@H](C(=O)Oc2ccc3c4c(c(=O)oc3c2)CCCC4)c2ccccc2)cc1 [ZINC11865709]
IC50 (NDM-1 [2]; [8]): > 300 µM

O=[N+]([O-])c1cccc(S(=O)(=O)N2CN(c3ccc4ccccc4c3)c3nc4ccccc4nc32)c1 [ZINC12524283]
IC50 (NDM-1 [2]; [8]): > 300 µM

O=C1C(=Cc2cccc(Cl)c2)CN(Cc2ccccc2)CC1=Cc1cccc(Cl)c1 [ZINC20115378]
IC50 (NDM-1 [2]; [8]): > 300 µM

Cc1ccccc1S(=O)(=O)ON1C(=O)c2cccc3cc(S(=O)(=O)N(C)C)cc(c23)C1=O [ZINC25558269]
IC50 (NDM-1 [2]; [9]): > 1000 µM

O=C1c2cccc3c(Br)ccc(c23)C(=O)N1OS(=O)(=O)c1ccc(Cl)cc1 [ZINC25558273]
IC50 (NDM-1 [2]; [8]): > 300 µM

Cc1ccc(C2=NN3[C@@H](C(=O)c4ccc(-c5ccccc5)cc4)Oc4ccc(Cl)cc4[C@H]3C2)cc1 [ZINC25558691]
IC50 (NDM-1 [2]; [9]): > 1000 µM

N[C@H](CN[C@H](CN[C@@H](CC(=O)O)C(=O)O)C(=O)O)C(=O)O [aspergillomarasmine A]
IC50 (NDM-1 [7]): 4 µM

— paper PMC7279046, “Discovery of the Novel Inhibitor Against New Delhi Metallo-β-Lactamase Based on Virtual Screening and Molecular Modelling” (International Journal of Molecular Sciences, 2020)
